Among the test systems are CCRF-CEM; DU-145; EKVX; HL-60; HT-29; IGROV-1; KM12; MOLT-4; NCI/ADR-RES; OVCAR-3; SF-268; SF-295; SF-539; SNB-19; U-251; HOP-92; MCF7; SNB-75; A498; MDA-MB-231.
Common to all, as to experiment: NCI anticancer screen, dose series, 48 h

We go through 12 compounds from ChEMBL document CHEMBL1201862, “PubChem BioAssay data set” (2004).

Molecules are shown by their SMILES.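 A five-concentration, 48-hour dose response in 96-well plates underlies each endpoint, interpolated linearly between surrounding concentrations. GI50: concentration for 50% inhibition of growth.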 Activity calls are given as the source filed them. No stated cut-off is given here; in the data, active = GI50 up to about 1.1 µM and inactive = higher.

For `CCN(CC)CCNc1n[n+]([O-])c2ccccc2[n+]1[O-]`, the GI50 in the test on CCRF-CEM was 3.91 µM (inactive); in the test on DU-145 it was 12.1 µM (inactive); in the test with EKVX, 12.7 µM (inactive); with HL-60, 1.85 µM (inactive); in the test with HT-29 it was 5.94 µM (inactive); in the test on IGROV-1 it was 1.81 µM (inactive). The GI50 with KM12 is 9.2 µM (inactive); in the test on MOLT-4, 2.02 µM (inactive); in the test on NCI/ADR-RES, 22.9 µM (inactive); in the test with OVCAR-3, 7.21 µM (inactive); in the test on SF-268, 10.7 µM (inactive); in the test with SF-295, 7.93 µM (inactive). Also, the results for the GI50 in the test with SF-539, with SNB-19 and in the test on U-251 were 9.27 µM (inactive), 13.5 µM (inactive) and 12.8 µM (inactive), respectively.

As for `CC[C@H]1C[C@@H](O)[C@@H]2[C@H](O)[C@H](O)CN2C1`, the GI50 in the test with CCRF-CEM, with DU-145, in the test on EKVX, with HL-60, with HOP-92 and in the test on HT-29 was > 100 µM (inactive) each time. Besides, the GI50 in the test on IGROV-1, in the test on KM12, with MCF7, with MOLT-4, in the test with NCI/ADR-RES and with OVCAR-3 was > 100 µM (inactive) throughout. The GI50 with SF-268, in the test on SF-295, in the test on SF-539, in the test with SNB-19, in the test with SNB-75 and in the test on U-251 was > 100 µM (inactive) each time.

Turning to `O=C(OCC1OC(c2nn[nH]n2)C(OC(=O)c2ccccc2)C1OC(=O)c1ccccc1)c1ccccc1` (stereo not drawn), the GI50 in the test with A498 was > 100 µM (inactive); in the test with CCRF-CEM, 96.6 µM (inactive); with DU-145 it was > 100 µM (inactive); in the test with EKVX, 66.1 µM (inactive); in the test with HL-60, > 100 µM (inactive); in the test on HOP-92 it was > 100 µM (inactive). Also, the GI50 with HT-29 is 61.9 µM (inactive); in the test with KM12, 67.6 µM (inactive); with MCF7, 41.2 µM (inactive); in the test on MOLT-4, > 100 µM (inactive); in the test with NCI/ADR-RES, > 100 µM (inactive); with OVCAR-3, > 100 µM (inactive). In addition, the GI50 in the test with SF-268 was 76.7 µM (inactive); with SF-295 it was > 100 µM (inactive); with SF-539, > 100 µM (inactive); with SNB-19, 32.7 µM (inactive); in the test on SNB-75, 57 µM (inactive); with U-251, > 100 µM (inactive).

`CC12CCC(/C(=N/c3cc(C(F)(F)F)cc(C(F)(F)F)c3)C1=O)C2(C)C` (stereo not drawn): the GI50 in the test on A498 was 22.3 µM (inactive); in the test with CCRF-CEM, 0.453 µM (active); with DU-145, 40.6 µM (inactive); in the test on EKVX, 78.7 µM (inactive); in the test with HL-60 it was 1.04 µM (active); in the test on HT-29 it was 68.5 µM (inactive). The GI50 in the test with IGROV-1 was 25.2 µM (inactive); with KM12, 26.4 µM (inactive); in the test on MCF7, 28.4 µM (inactive); in the test on MDA-MB-231 it was 36.9 µM (inactive); in the test with MOLT-4 it was 17.4 µM (inactive); in the test with NCI/ADR-RES, 44.3 µM (inactive). The GI50 was 33.7 µM (inactive) in the test on OVCAR-3; 33.3 µM (inactive) with SF-268; 41.9 µM (inactive) with SF-295; 22.9 µM (inactive) with SF-539; 49.4 µM (inactive) in the test on SNB-19; 35.4 µM (inactive) with U-251.

Turning to `O=C1c2ccccc2-c2cc3ccccc3c(=O)n21`, the GI50 in the test with CCRF-CEM, with DU-145, in the test on EKVX, with HT-29, in the test on IGROV-1 and in the test with KM12 was > 100 µM (inactive) throughout. The GI50 is 29 µM (inactive) with MCF7; > 100 µM (inactive) in the test with NCI/ADR-RES; > 100 µM (inactive) in the test with OVCAR-3; > 100 µM (inactive) with SF-268; > 100 µM (inactive) in the test with SF-295; > 100 µM (inactive) in the test on SF-539. Besides, the GI50 in the test on SNB-19 and in the test with SNB-75 was > 100 µM (inactive) throughout.

As for `Cc1ccc2nc(-c3ccc(N)c(I)c3)sc2c1`, the GI50 with A498 was 20.4 µM (inactive); with CCRF-CEM, 6.21 µM (inactive); with EKVX, 29 µM (inactive); in the test with HL-60, 12.9 µM (inactive); in the test with HOP-92, 20.1 µM (inactive); with HT-29, 18.9 µM (inactive). Besides, the GI50 was 5.87 µM (inactive) in the test with KM12; 14.3 µM (inactive) with MDA-MB-231; 10.4 µM (inactive) in the test with MOLT-4; 72.3 µM (inactive) in the test with NCI/ADR-RES; 21.8 µM (inactive) in the test with OVCAR-3; 23.2 µM (inactive) in the test on SF-268. In addition, the GI50 in the test on SF-295 was 19.1 µM (inactive); in the test with SF-539, 23.3 µM (inactive); in the test with SNB-19 it was 19 µM (inactive); in the test with SNB-75 it was 41.5 µM (inactive); with U-251, 26.1 µM (inactive).

In the case of `CN(C)CC1CCC(CN(C)C)C(=O)C1=O` (stereo not drawn), the GI50 with A498 is 16.8 µM (inactive); in the test on CCRF-CEM it was 1.73 µM (inactive); in the test on DU-145, 16.5 µM (inactive); with EKVX, 17.3 µM (inactive); in the test on HL-60, 2.36 µM (inactive); with HOP-92, 1.99 µM (inactive). Besides, the GI50 is 7.64 µM (inactive) in the test on HT-29; 17.6 µM (inactive) in the test on IGROV-1; 14.2 µM (inactive) with KM12; 2.46 µM (inactive) in the test on MCF7; 6.22 µM (inactive) in the test on MDA-MB-231; 2.03 µM (inactive) in the test on MOLT-4. For the same compound, the GI50 is 2.31 µM (inactive) with OVCAR-3; 6.75 µM (inactive) in the test on SF-268; 16.6 µM (inactive) in the test with SF-295; 7.18 µM (inactive) with SF-539; 17.7 µM (inactive) in the test on SNB-19; 14.7 µM (inactive) in the test on SNB-75. Also, in the test with U-251, the GI50 was 12.7 µM (inactive).

Consider `Clc1nc(Cl)c(Cl)c(-c2ccccc2)n1`, for which the GI50 with CCRF-CEM was 0.74 µM (active); with EKVX it was 16.6 µM (inactive); in the test on HL-60 it was > 100 µM (inactive); in the test on HT-29 it was 1.68 µM (inactive); in the test on IGROV-1, 15.4 µM (inactive); in the test with KM12, 5.02 µM (inactive). Also, the GI50 is 7.05 µM (inactive) with MCF7; 1.58 µM (inactive) with MOLT-4; 5.62 µM (inactive) in the test with NCI/ADR-RES; 2.05 µM (inactive) in the test on OVCAR-3; 23.9 µM (inactive) with SF-268; 3.93 µM (inactive) in the test on SF-295. Besides, the GI50 in the test on SF-539 was 11.8 µM (inactive); in the test with SNB-19 it was 15.6 µM (inactive); in the test on SNB-75, 2.26 µM (inactive); with U-251 it was 15.1 µM (inactive).

As to `CC(O[Si](C)(C)C(C)(C)C)[C@H](NC(=O)OCC(Cl)(Cl)Cl)C(=O)O` (stereo partly drawn), the GI50 in the test on A498, with CCRF-CEM, in the test with DU-145, with EKVX, in the test on HL-60 and in the test with HT-29 was > 100 µM (inactive) throughout. Also, the GI50 in the test with IGROV-1 is > 100 µM (inactive); with KM12 it was 56 µM (inactive); in the test with MCF7, > 100 µM (inactive); with MDA-MB-231, > 100 µM (inactive); in the test on MOLT-4, > 100 µM (inactive); in the test with NCI/ADR-RES, > 100 µM (inactive). Also, the GI50 with OVCAR-3 is 79.6 µM (inactive); in the test with SF-268, > 100 µM (inactive); in the test on SF-295 it was 51.2 µM (inactive); with SF-539 it was > 100 µM (inactive); in the test on SNB-19 it was > 100 µM (inactive); in the test on U-251 it was > 100 µM (inactive).

Take `C[S+]([O-])c1ccc(COP(N)(=O)N(CCCl)CCCl)cc1` (stereo not drawn): the GI50 with A498, with CCRF-CEM, with EKVX, with HL-60, with HOP-92 and with HT-29 was > 100 µM (inactive) in each case. Besides, the GI50 in the test with IGROV-1, with KM12, in the test on MOLT-4, with OVCAR-3, in the test with SF-268 and with SF-295 was > 100 µM (inactive) each time. Further, the GI50 in the test with SF-539, in the test with SNB-19, in the test with SNB-75 and with U-251 was > 100 µM (inactive) each time.

For `CC1(C)Oc2ccc3c(=O)cc(-c4ccccc4)oc3c2C1C(=O)O` (stereo not drawn), the GI50 in the test on A498, in the test with CCRF-CEM, in the test with DU-145, in the test with EKVX, in the test on HL-60 and with HT-29 was > 100 µM (inactive) each time. For the same compound, the GI50 in the test with IGROV-1, with MCF7, in the test on MDA-MB-231, with MOLT-4, in the test on NCI/ADR-RES and in the test with OVCAR-3 was > 100 µM (inactive) each time. Moreover, the GI50 in the test on SF-268, in the test on SF-295, with SF-539 and in the test with U-251 was > 100 µM (inactive) each time.

As to `Cc1cc2ccccc2n2c1nc1ccc(O)cc12`, the GI50 in the test with CCRF-CEM, with DU-145, in the test on EKVX, with HL-60, with HT-29 and with IGROV-1 was > 10 µM (inactive) throughout. Besides, the GI50 was > 10 µM (inactive) in the test with KM12; > 10 µM (inactive) with MCF7; > 10 µM (inactive) with MDA-MB-231; 5.69 µM (inactive) with MOLT-4; > 10 µM (inactive) in the test with NCI/ADR-RES; > 10 µM (inactive) in the test on OVCAR-3. In addition, the GI50 in the test with SF-268 is > 10 µM (inactive); in the test on SF-295, > 10 µM (inactive); in the test with SF-539, > 10 µM (inactive); with SNB-19 it was > 10 µM (inactive); with SNB-75, 5 µM (inactive); with U-251, 7.71 µM (inactive).
